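Step 1: Grow cells in 96-well plates. Step 2: Expose to compound for 48 hours at 5 concentrations. Step 3: Interpolate endpoints linearly; if unreached, use highest concentration. TGI: concentration producing complete growth inhibition.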 Where a SMILES comes first, the peptide text is derived from it. [ ]: non-standard residue; d: D form. The star is where a group is joined. Cbz = O=C(OCc1ccccc1)*; Aib = CC(C)(N)C(=O)O; OBn = c1ccc(CO*)cc1
Experiments:
Assay in all cases: NCI anticancer screen, dose series, 48 h
786-0 renal = test system: 786-0 renal
COLO 205 colon = test system: COLO 205 colon
IGROV1 ovarian = test system: IGROV1 ovarian
MALME-3M melanoma = test system: MALME-3M melanoma
MDA-MB-435 = test system: MDA-MB-435
NCI/ADR-RES ovarian = test system: NCI/ADR-RES ovarian
SF-268 CNS = test system: SF-268 CNS
SK-OV-3 ovarian = test system: SK-OV-3 ovarian
SR leukemia = test system: SR leukemia
SW-620 colon = test system: SW-620 colon

Measured: TGI

C=CCn1c(=O)ccn(/C(=C/C(=O)OCC)C(=O)OCC)c1=O
74.3 µM: SK-OV-3 ovarian
25.4 µM: MALME-3M melanoma
23.2 µM: SR leukemia
11.7 µM: 786-0 renal
6.57 µM: SW-620 colon
50.8 µM: NCI/ADR-RES ovarian
26.2 µM: MDA-MB-435
29.7 µM: IGROV1 ovarian
42.1 µM: SF-268 CNS
3.97 µM: COLO 205 colon

CCN(C(=O)N[C@@H](C)C(=O)N[C@@H](Cc1ccccc1)C(=O)OC)c1ccccc1
83.8 µM: MALME-3M melanoma
> 100 µM: 786-0 renal | COLO 205 colon | IGROV1 ovarian | MDA-MB-435 | NCI/ADR-RES ovarian | SF-268 CNS | SK-OV-3 ovarian | SR leukemia | SW-620 colon

O=C(CCSC1=NCCCN1)c1ccc(F)cc1
67.1 µM: SF-268 CNS
44.4 µM: IGROV1 ovarian
13.3 µM: SR leukemia
19.1 µM: MALME-3M melanoma
43.5 µM: SK-OV-3 ovarian
47.6 µM: MDA-MB-435
> 91.5 µM: NCI/ADR-RES ovarian
14.1 µM: 786-0 renal
15.5 µM: SW-620 colon
11.8 µM: COLO 205 colon

CCOC(=O)CC/C(=N/Nc1ccc(Cl)cc1[N+](=O)[O-])C(=O)OCC
> 100 µM: 786-0 renal | COLO 205 colon | IGROV1 ovarian | MALME-3M melanoma | MDA-MB-435 | NCI/ADR-RES ovarian | SF-268 CNS | SK-OV-3 ovarian | SR leukemia | SW-620 colon

Cc1cc(C[C@H]2O[C@@H]3OC(C)(C)O[C@@H]3[C@H]3OC(C)(C)O[C@H]32)c2ccccc2n1
> 100 µM: 786-0 renal | COLO 205 colon | IGROV1 ovarian | MALME-3M melanoma | MDA-MB-435 | NCI/ADR-RES ovarian | SF-268 CNS | SK-OV-3 ovarian | SR leukemia | SW-620 colon

COc1ccc(/C=N/NC(=O)c2ccc(O)c(CN(C)C)c2)cc1
> 100 µM: 786-0 renal | COLO 205 colon | IGROV1 ovarian | MALME-3M melanoma | MDA-MB-435 | NCI/ADR-RES ovarian | SF-268 CNS | SK-OV-3 ovarian | SR leukemia | SW-620 colon

COc1cc(O)c2c(=O)c(OC)c(-c3ccc(OC)c(O)c3)oc2c1
> 100 µM: 786-0 renal | COLO 205 colon | IGROV1 ovarian | MALME-3M melanoma | MDA-MB-435 | NCI/ADR-RES ovarian | SF-268 CNS | SK-OV-3 ovarian | SR leukemia | SW-620 colon

O=c1onc2n1-c1cc(Cl)ccc1C(=S)N1CSCC21 (stereo not given)
> 100 µM: 786-0 renal | COLO 205 colon | IGROV1 ovarian | MALME-3M melanoma | MDA-MB-435 | NCI/ADR-RES ovarian | SF-268 CNS | SK-OV-3 ovarian | SR leukemia | SW-620 colon

CCOC(=O)c1c2cccccc-2nc1Nc1cccc2c(C)ccnc12
> 10 µM: 786-0 renal | COLO 205 colon | IGROV1 ovarian | MALME-3M melanoma | MDA-MB-435 | NCI/ADR-RES ovarian | SF-268 CNS | SK-OV-3 ovarian | SR leukemia | SW-620 colon

CSc1csc(-c2ccc(-c3ccc(-c4cc(SC)cs4)s3)s2)c1
> 100 µM: 786-0 renal | COLO 205 colon | IGROV1 ovarian | MALME-3M melanoma | MDA-MB-435 | NCI/ADR-RES ovarian | SF-268 CNS | SK-OV-3 ovarian | SR leukemia | SW-620 colon

Cn1ncc2c(NCc3ccccc3)ncnc21
> 100 µM: 786-0 renal | COLO 205 colon | IGROV1 ovarian | MALME-3M melanoma | MDA-MB-435 | NCI/ADR-RES ovarian | SF-268 CNS | SK-OV-3 ovarian | SR leukemia | SW-620 colon

CC(NC(=O)C(C)(C)NC(=O)C(CC(=O)OCc1ccccc1)NC(=O)OCc1ccccc1)C(N)=O (stereo not given) (Cbz-Asp(OBn)-[Aib]-Ala-NH2; configuration not given here)
> 100 µM: 786-0 renal | COLO 205 colon | IGROV1 ovarian | MALME-3M melanoma | MDA-MB-435 | NCI/ADR-RES ovarian | SF-268 CNS | SK-OV-3 ovarian | SR leukemia | SW-620 colon

c1ccc(C(C(=Nc2ccc(Cc3ccc(N=C(C(c4ccccc4)c4ccccc4)N4CC4)cc3)cc2)N2CC2)c2ccccc2)cc1
11.1 µM: SK-OV-3 ovarian
16.7 µM: COLO 205 colon
15.7 µM: SR leukemia
21.8 µM: SF-268 CNS
65.5 µM: 786-0 renal
20.1 µM: SW-620 colon
2.41 µM: IGROV1 ovarian
38.8 µM: MALME-3M melanoma
21.1 µM: MDA-MB-435
24.2 µM: NCI/ADR-RES ovarian

COc1cc(Nc2ccc3c(c2)CCC3)nc(OC)n1
65.5 µM: NCI/ADR-RES ovarian
77.8 µM: SR leukemia
> 100 µM: 786-0 renal | COLO 205 colon | IGROV1 ovarian | MALME-3M melanoma | MDA-MB-435 | SF-268 CNS | SK-OV-3 ovarian | SW-620 colon

CC(C)N1CCN(c2ccc(OCC3COC(Cn4cncn4)(c4ccc(Cl)cc4Cl)O3)cc2)CC1 (stereo not given)
33.6 µM: IGROV1 ovarian
37.4 µM: SW-620 colon
54.9 µM: NCI/ADR-RES ovarian
28.8 µM: SF-268 CNS
15.8 µM: MDA-MB-435
3.69 µM: COLO 205 colon
12.1 µM: SR leukemia
28.9 µM: SK-OV-3 ovarian
22.2 µM: MALME-3M melanoma
14.5 µM: 786-0 renal

Clc1ccc(C=NC23CC4CC(CC(C4)C2)C3)c(Cl)c1
> 10 µM: 786-0 renal | COLO 205 colon | IGROV1 ovarian | MALME-3M melanoma | MDA-MB-435 | NCI/ADR-RES ovarian | SF-268 CNS | SK-OV-3 ovarian | SR leukemia | SW-620 colon

CC1=C(C#N)c2nc3ccccc3n2C(=O)C1(C)CCO (stereo not given)
> 100 µM: 786-0 renal | COLO 205 colon | IGROV1 ovarian | MALME-3M melanoma | MDA-MB-435 | NCI/ADR-RES ovarian | SF-268 CNS | SK-OV-3 ovarian | SR leukemia | SW-620 colon

Source: PubChem BioAssay (NCI)
